This test concerns HCV replicon. Briefly: microbe, parasite or virus in culture. It is filed as cell-based. The conditions noted are these: Replicon IC50 values are determined by firefly luciferase signal; bicistronic replicon, 2 days; read-out: Replicon IC5Os. (In general: In antiviral work, replicon cells carry a viral genome segment that copies itself.)

Where only a bound is given, the exact number is not on record here.

With `CCn1cc(C#N)c2ccc(Cl)cc21` [Compound 118], the IC50 lay within 500 to 2000 nM.

On to `CCn1c(-c2ccc(NC(=O)OCc3ccccc3)cc2)c(C#N)c2ccc(OC)cc21` [Compound 122], for which the IC50 is greater than 2000 nM.

Take `CCn1cc(C#N)c2ccc(C(F)(F)F)cc21` [Compound 123]: the IC50 was greater than 2000 nM.

Regarding `Cc1ccc2c(C#N)c(C)n(-c3ccc4c(c3)OCO4)c2c1` [Compound 125], the IC50 fell in the range of 500 to 2000 nM.

`CCn1cc(C#N)c2ccc(Br)cc21` [Compound 126]: the IC50 is greater than 2000 nM.

As to `COc1ccc(-n2cc(C#N)c3ccc(Br)cc32)cc1` [Compound 127], the IC50 was greater than 2000 nM.

With `CCn1c(C#Cc2cccc3ccccc23)c(C#N)c2ccc(OC)cc21` [Compound 133], the IC50 was in the range of 500 to 2000 nM.

For `CCn1c(C#Cc2ccccc2Br)c(C#N)c2ccc(OC)cc21` [Compound 136], the IC50 was in the range of 500 to 2000 nM.

For the compound `CCn1c(C#Cc2ccc(OC)cc2C)c(C#N)c2ccc(OC)cc21` [Compound 137], the IC50 was 500 to 2000 nM.

As to `CCn1cc(C#N)c2cc(-c3cccs3)ccc21` [Compound 140], the IC50 was greater than 2000 nM.

Consider `CCn1cc(C#N)c2cc(-c3ccoc3)ccc21` [Compound 142], for which the IC50 is greater than 2000 nM.

With `CCn1c(C#Cc2ccc(N3CCCCC3)cc2)c(C#N)c2ccc(OC)cc21` [Compound 143], the IC50 was greater than 2000 nM.

Consider `CCn1c(C#Cc2cccc(Cl)c2)c(C#N)c2ccc(OC)cc21` [Compound 146], for which the IC50 fell in the range of 500 to 2000 nM.

On to `CCn1c(C#Cc2ccc(N(C)C)cc2)c(C#N)c2ccc(OC)cc21` [Compound 147], for which the IC50 was 500 to 2000 nM.

On to `CCn1c(C#Cc2ccc(Cl)cc2)c(C#N)c2ccc(OC)cc21` [Compound 148], for which the IC50 fell in the range of 500 to 2000 nM.

Consider `CCOc1ccc(C#Cc2c(C#N)c3ccc(OC)cc3n2CC)cc1` [Compound 149], for which the IC50 fell in the range of 500 to 2000 nM.

Consider `CCn1c(C#Cc2ccccc2F)c(C#N)c2ccc(OC)cc21` [Compound 150], for which the IC50 was in the range of 500 to 2000 nM.

For `CCn1c(C#Cc2cccc(F)c2)c(C#N)c2ccc(OC)cc21` [Compound 151], the IC50 fell in the range of 500 to 2000 nM.

On to `CCn1c(C#Cc2ccc(NC(=O)C(C)C)cc2)c(C#N)c2ccc(OC)cc21` [Compound 152], for which the IC50 is greater than 2000 nM.

On to `CCn1c(C#Cc2ccc(OC)c(OC)c2)c(C#N)c2ccc(OC)cc21` [Compound 159], for which the IC50 was in the range of 500 to 2000 nM.

Turning to `CCn1c(C#Cc2ccc(NC(=O)[C@@H]3CCCN3)cc2)c(C#N)c2ccc(OC)cc21` [Compound 162], the IC50 was greater than 2000 nM.

Take `CCn1c(C#Cc2ccc(NC(=O)c3c[nH]cn3)cc2)c(C#N)c2ccc(OC)cc21` [Compound 163]: the IC50 is 500 to 2000 nM.

As to `CCC(=O)Nc1ccc(C#Cc2c(C#N)c3ccc(O)cc3n2CC)cc1` [Compound 164], the IC50 was 500 to 2000 nM.

Take `CCn1c(C#Cc2ccc(NC(=O)CN)cc2)c(C#N)c2ccc(OC)cc21` [Compound 165]: the IC50 was greater than 2000 nM.

Consider `CCn1c(C#Cc2ccccc2N)c(C#N)c2ccc(OC)cc21` [Compound 169], for which the IC50 was 500 to 2000 nM.

Regarding `CCn1c(C#Cc2cccs2)c(C#N)c2ccc(OC)cc21` [Compound 170], the IC50 was 500 to 2000 nM.

Regarding `CCn1c(C#Cc2ccsc2)c(C#N)c2ccc(OC)cc21` [Compound 171], the IC50 lay within 500 to 2000 nM.

For the compound `CCn1c(C#Cc2ccccn2)c(C#N)c2ccc(OC)cc21` [Compound 174], the IC50 lay in the range of 500 to 2000 nM.

In the case of `CCn1c(C#Cc2ccc(OC)cc2)c(C#N)c2cc(OC)ccc21` [Compound 177], the IC50 lay in the range of 500 to 2000 nM.

Regarding `CCn1c(C#Cc2ccc(C(F)(F)F)cc2)c(C#N)c2cc(OC)ccc21` [Compound 178], the IC50 is greater than 2000 nM.

For the compound `CCn1cc(C#N)c2cc(C(F)(F)F)ccc21` [Compound 179], the IC50 was 500 to 2000 nM.

For `CCn1c(-c2ccc(N(C)S(=O)(=O)CC)cc2)c(C#N)c2ccc(OC)cc21` [Compound 181], the IC50 lay within 500 to 2000 nM.

As for `CCn1c(C#Cc2cccc3ccccc23)c(C#N)c2ccc(O)cc21` [Compound 184], the IC50 was 500 to 2000 nM.

In the case of `CCn1c(C#Cc2ccc(OC)cc2)c(C#N)c2ccc(O)cc21` [Compound 186], the IC50 lay within 500 to 2000 nM.

These data come from patent US8013006B2.
